Measurements as given in patent publication US20240279144A1, “CONTROL OF IODIDES IN ACETIC ACID PRODUCTION” (LyondellBasell Acetyls, LLC, priority 2023, published 2024).

Key:
[1] = FTIR P═O stretching frequency in acetonitrile as a gauge of basicity; type: physicochemical; settings: lower frequency = higher basicity
Description: FTIR analyses were carried out on a Nicolet 6700 FTIR spectrometer equipped with a 3 bounce zinc selenide (ZnSe) attenuated total reflectance (ATR) crystal assembly. 0.1 mL aliquots of solution were removed from samples via micro-syringe. The solution was then placed on the crystal and an FTIR spectrum was obtained.

[2] = for solubility, bis(diphenylphosphino) series: acetonitrile or glacial acetic acid (GAA)
[3] = Vapor-liquid-equilibrium (VLE) test: iodide measured in the condensed vapor phase (suppression of HI volatilization); type: physicochemical
[4] = pKb (basicity) of Group 15 oxides
[5] = additive 0.05 molar, 0.1M HI, 1.3M H2O (2 wt %), GAA, approximately 140° C.
[6] = additive 0.1 molar, 0.1M HI, 1.3M H2O (2 wt %), GAA, approximately 140° C.

| Structure (SMILES) | P═O, cm^−1 [1] | HI (ppm in vapor) [3, 5] | HI (ppm in vapor) [3, 6] [ppm] | other results |
| --- | --- | --- | --- | --- |
| O=P(CCCP(=O)(c1ccccc1)c1ccccc1)(c1ccccc1)c1ccccc1 [Bis-DPPPrO] | 1,180.0 cm^−1 | – | – | – |
| c1ccc(P(CCCCCCP(c2ccccc2)c2ccccc2)c2ccccc2)cc1 | – | – | – | solubility, bis(diphenylphosphino) series [2]: insoluble |
| O=P(CP(=O)(c1ccccc1)c1ccccc1)(c1ccccc1)c1ccccc1 [Bis-DPPMeO2, bis(diphenylphosphino)methane dioxide] | 1,197.7 cm^−1 | 7,889 ppm | 876 | – |
| O=P(CP(=O)(C1CCCCC1)C1CCCCC1)(C1CCCCC1)C1CCCCC1 [Bis-DiCyPMeO2] | 1,160.1 cm^−1 | – | – | – |
| c1ccc(P(CCCCP(c2ccccc2)c2ccccc2)c2ccccc2)cc1 | – | – | – | solubility, bis(diphenylphosphino) series [2]: insoluble |
| O=P(CCCP(=O)(c1ccccc1)c1ccccc1)(c1ccccc1)c1ccccc1 [Bis-DPPPrO2, bis(diphenylphosphino)propane dioxide] | 1,180.8 cm^−1 | 6,291 ppm | 421 | – |
| O=P(CCCCCP(=O)(c1ccccc1)c1ccccc1)(c1ccccc1)c1ccccc1 [Bis-DPPPeO2, bis(diphenylphosphino)pentane dioxide] | 1,178.2 cm^−1 | 5,392 ppm | 683 | – |
| O=P(c1ccccc1)(c1ccccc1)c1ccccc1 [TPPO, triphenylphosphine oxide, reference compound] | 1,191.6 cm^−1 | – | – | – |
| O=[As](c1ccccc1)(c1ccccc1)c1ccccc1 [Ph3AsO, triphenyl arsine oxide] | – | – | – | HI (ppm in vapor) ([3]; Table 5, additive 0.25 molar, 1:1 molar ratio of additive to HI): 1,132 ppm; effectiveness in suppressing volatilization of HI relative to the CMPO ([3]; equivalent molarity, Table 5 conditions): about 7 times; pKb [4]: 4.15; solubility in GAA upon addition of HI ([2]; HI added): soluble; solubility in GAA ([2]; without added HI): soluble |
